One assay addresses FGFR4 (Homo sapiens, UniProt P22455). Description: FGFR4 Caliper Assay (in vitro biochemical kinase analysis of FGFR4). Particulars: read-out: Enzymatic activity FGFR4 IC50. In outline:
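Kinase reaction at 30° C for 40 min in 50 mM HEPES pH 7.5, 16 mM MgCl2, 1 mM DTT, 0.6% DMSO, stopped with EDTA. Phosphorylated and unphosphorylated fluorescent peptides separated by Caliper microfluidic mobility shift. IC50 by non-linear regression of percent inhibition.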

For assay [1], the system named is Huh7 hepatocellular carcinoma cells. The experiment in a line: FGFR4 cell proliferation experiment, Cell Titer Glo (CTG). The format is cell-based. Conditions: HuH-7 cells, 3 days; for IC50: concentration leading to absolute half growth inhibition; for EC50: concentration leading to half maximal growth inhibition. The method in brief: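 Cells treated with 5-fold serial dilutions starting at 10 μM for 3 days at 37° C, 5% CO2. Proliferation/survival quantified as cellular ATP by CellTiter-Glo luminescence.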

FGFR4, sequence (P22455 22-802): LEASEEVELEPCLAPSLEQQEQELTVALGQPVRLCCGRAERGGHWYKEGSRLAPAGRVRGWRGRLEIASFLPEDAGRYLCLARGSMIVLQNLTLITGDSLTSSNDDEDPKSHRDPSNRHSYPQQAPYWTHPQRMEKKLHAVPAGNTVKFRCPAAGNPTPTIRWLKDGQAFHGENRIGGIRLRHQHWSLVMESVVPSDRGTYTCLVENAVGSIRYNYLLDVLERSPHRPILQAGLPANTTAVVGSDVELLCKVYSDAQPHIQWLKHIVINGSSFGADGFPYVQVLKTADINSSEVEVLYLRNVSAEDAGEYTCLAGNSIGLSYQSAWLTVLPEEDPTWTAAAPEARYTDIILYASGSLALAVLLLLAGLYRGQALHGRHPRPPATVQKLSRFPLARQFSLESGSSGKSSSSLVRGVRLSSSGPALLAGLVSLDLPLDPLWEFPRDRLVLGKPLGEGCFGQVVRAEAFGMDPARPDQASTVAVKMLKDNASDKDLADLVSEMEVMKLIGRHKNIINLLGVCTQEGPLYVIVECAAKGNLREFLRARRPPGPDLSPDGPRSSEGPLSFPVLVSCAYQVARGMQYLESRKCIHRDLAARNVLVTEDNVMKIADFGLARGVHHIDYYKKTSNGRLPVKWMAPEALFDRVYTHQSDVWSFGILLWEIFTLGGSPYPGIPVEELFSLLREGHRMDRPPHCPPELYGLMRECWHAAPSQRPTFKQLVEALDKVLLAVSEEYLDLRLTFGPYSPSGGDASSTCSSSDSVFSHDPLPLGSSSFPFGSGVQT

As for `C=CC(=O)N[C@H]1COC[C@H]1Nc1ncc2cc(-c3c(F)c(OC)cc(OC)c3F)nc(N3CCC(C)(O)C3)c2n1` (stereo partly drawn) [Example 772, N-((3R,4S)-4-((6-(2,6-difluoro-3,5-dimethoxyphenyl)-8-(3-hydroxy-3-methylpyrrolidin-1-yl)pyrido[3,4-d]py-rimidin-2-l)amino)tetrahydrofuran-3-yl)acrylamide], the IC50 on FGFR4 turned out to be 2.9 nM. In assay [1] (Homo sapiens, Huh-7, 72 h), this compound showed an IC50 of 8.1 nM and an EC50 of 6.8 nM.
For `C=CC(=O)N[C@H]1COC[C@H]1Nc1ncc2cc(-c3c(F)c(OC)cc(OC)c3F)nc(N3CC(C)(O)C3)c2n1` [Example 773, N-((3R,4S)-4-((6-(2,6-difluoro-3,5-dimethoxyphenyl)-8-(3-hydroxy-3-meth-ylazetidin-1-yl)pyrido[3,4-d]py-rimidin-2-yl)amino)tetrahydrofuran-3-yl)acrylamide] the same measures were 1.8 nM, 2.3 nM and 2 nM.
For `C=CC(=O)N[C@H]1COC[C@H]1Nc1ncc2cc(-c3c(F)c(OC)cc(OC)c3F)nc(N3CCC3)c2n1` [Example 774, N-((3R,4S)-4-((8-(azetidin-1-yl)-6-(2,6-difluoro-3,5-dimethoxyphenyl)py-rido[3,4-d]pyrimidin-2-yl)amino)tetra-hydrofuran-3-yl)acrylamide] the same measures were 3.2 nM, 8.8 nM and 6.9 nM.
For `C=CC(=O)N[C@H]1CCOC[C@H]1Nc1ncc2cc(-c3c(F)c(OC)cc(OC)c3F)nc(N3CC(OC)C3)c2n1` [Example 775, N-((3S,4S)-3-((6-(2,6-difluoro-3,5-dimethoxyphenyl)-8-(3-methoxyazetidin-1-yl)pyrido[3,4-d]pyrimidin-2-yl)amino)tetrahydro-2H-pyran-4-yl)acrylamide] the same measures were 8.9 nM, 27.8 nM and 20.8 nM.
`C=CC(=O)N[C@H]1COC[C@H]1Nc1ncc2cc(-c3c(Cl)c(OC)cc(OC)c3Cl)nc(N3CC4(CCOCC4)C3)c2n1` [Example 776, N-((3R,4S)-4-((6-(2,6-dichloro-3,5-dimethoxyphenyl)-8-(7-oxa-2-azaspiro [3.5]nonan-2-yl)pyrido[3,4-d]pyrimi-din-2-yl)amino)tetrahydrofuran-3-yl)acrylamide]: the IC50 at FGFR4 is 4.9 nM. In assay [1], this compound showed an IC50 of 9.4 nM and an EC50 of 7.9 nM.
Regarding `C=CC(=O)N[C@H]1CCOC[C@H]1Nc1ncc2cc(-c3c(F)c(OC)cc(OC)c3F)nc(NC)c2n1` [Example 786, N-((3S,4S)-3-((6-(2,6-difluoro-3,5-dimethoxyphenyl)-8-(methylamino)py-rido[3,4-d]pyrimidin-2-yl)amino)tetra-hydro-2H-pyran-4-yl)acrylamide], on FGFR4, the IC50 stood at 17 nM. In assay [1] (Homo sapiens, Huh-7, 72 h), this compound gave an IC50 of 47.6 nM and an EC50 of 38.4 nM.
The matching figures for `C=CC(=O)N[C@H]1CCOC[C@H]1Nc1ncc2cc(-c3c(F)c(OC)cc(OC)c3F)nc(NCC)c2n1` [Example 787, N-((3S,4S)-3-((6-(2,6-difluoro-3,5-dimethoxyphenyl)-8-(ethylamino)pyri-do[3,4-d]pyrimidin-2-yl)amino)tetra-hydro-2H-pyran-4-yl)acrylamide]: 45 nM, 103 nM and 86 nM.
The matching figures for `C=CC(=O)N[C@H]1CCOC[C@H]1Nc1ncc2cc(-c3c(F)c(OC)cc(OC)c3F)nc(N3CCOCC3)c2n1` [Example 789, N-((3S,4)S-3-((6-(2,6-difluoro-3,5-dimethoxyphenyl)-8-morpholinopy-rido[3,4-d]pyrimidin-2-yl)amino)tetra-hydro-2H-pyran-4-yl)acrylamide]: 7.8 nM, 15.9 nM and 12.6 nM.
Take `C=CC(=O)N[C@H]1CCOC[C@H]1Nc1ncc2cc(-c3c(F)c(OC)cc(OC)c3F)nc(N3CC(C)(OC)C3)c2n1` [Example 790, N-((3S,4S)-3-((6-(2,6-difluoro-3,5-dimethoxyphenyl)-8-(3-methoxy-3-methylazetidin-1-yl)pyrido[3,4-d]py-rimidin-2-yl)amino)tetrahydro-2H-pyran-4-yl)acrylamide]: at FGFR4, the IC50 came out at 8.5 nM. Also, in assay [1] (Homo sapiens, Huh-7, 72 h), the IC50 was found to be 13.6 nM and a half-maximal effect (EC50) was put at 11.4 nM.
For `C=CC(=O)N[C@H]1CCOC[C@H]1Nc1ncc2cc(-c3c(F)c(OC)cc(OC)c3F)nc(N3CC(F)(F)C3)c2n1` [Example 791, N-((3S,4S)-3-((6-(2,6-difluoro-3,5-dimethoxyphenyl)-8-(3,3-difluoroazet-idin-1-yl)pyrido[3,4-d]pyrimidin-2-yl)amino)tetrahydro-2H-pyran-4-yl)acrylamide] the same measures were 3.7 nM, 8.4 nM and 6.4 nM.
For `C=CC(=O)N[C@H]1CCOC[C@H]1Nc1ncc2cc(-c3c(F)c(OC)cc(OC)c3F)nc(N3CCC3)c2n1` [Example 792, N-((3S,4S)-3-((8-(azetidin-1-yl)-6-(2,6-difluoro-3,5-dimethoxyphenyl)py-rido[3,4-d]pyrimidin-2-yl)amino)tetra-hydro-2H-pyran-4-yl)acrylamide] the same measures were 3.1 nM, 6.2 nM and 4.8 nM.
For `C=CC(=O)N[C@H]1CCOC[C@H]1Nc1ncc2cc(-c3c(F)c(OC)cc(OC)c3F)nc(N3CC(C)(O)C3)c2n1` [Example 793, N-((3S,4S)-3-((6-(2,6-difluoro-3,5-dimethoxyphenyl)-8-(3-hydroxy-3-methylazetidin-1-yl)pyrido[3,4-d]py-rimidin-2-yl)amino)tetrahydro-2H-pyran-4-yl)acrylamide] the same measures were 5.3 nM, 9.9 nM and 7.9 nM.
Take `C=CC(=O)N[C@H]1CCOC[C@H]1Nc1ncc2cc(-c3c(F)c(OC)cc(OC)c3F)nc(N3CCC(OC)C3)c2n1` (stereo partly drawn) [Example 794, N-((3S,4S)-3-((6-(2,6-difluoro-3,5-dimethoxyphenyl)-8-(3-methoxy-pyrrolidin-1-yl)pyrido[3,4-d]py-rimidin-2-yl)amino)tetrahydro-2H-pyran-4-yl)acrylamide]: the IC50 at FGFR4 was 4.8 nM. In assay [1] (Homo sapiens, Huh-7, 72 h), 6.9 nM corresponded to half-maximal inhibition (IC50) and the EC50 was 5.5 nM.
The matching figures for `C=CC(=O)N[C@H]1CCOC[C@H]1Nc1ncc2cc(-c3c(F)c(OC)cc(OC)c3F)nc(N3CCC(OC)CC3)c2n1` [Example 795, N-((3S,4S)-3-((6-(2,6-difluoro-3,5-dimethoxyphenyl)-8-(4-methoxy-piperidin-1-yl)pyrido[3,4-d]pyrimidin-2-yl)amino)tetrahydro-2H-pyran-4-yl)acrylamide]: 7.5 nM, 11.8 nM and 9.5 nM.
For `C=CC(=O)N[C@H]1CCOC[C@H]1Nc1ncc2cc(-c3c(F)c(OC)cc(OC)c3F)nc(N3CC4CC(C3)O4)c2n1` [Example 796, N-((3S,4S)-3-((8-(6-oxa-3-aza-bicyclo[3.1.1]heptan-3-yl)-6-(2,6-difluoro-3,5-dimethoxyphenyl)py-rido[3,4-d]pyrimidin-2-yl)a-mino)tetrahydro-2H-pyran-4-yl)acrylamide] the same measures were 23 nM, 47.8 nM and 38 nM.
On to “N-((3S,4S)-3-((6-(2,6-dichloro-3,5-di- methoxyphenyl)-8-(methylamino)py- rido[3,4-d]pyrimidin-2-yl)amino)tetra- hydro-2H-pyran-4-yl)acrylamide [Example 510]”, for which, at FGFR4, the 50% inhibitory concentration (IC50) came to 29 nM. In addition, in assay [1], the IC50 was found to be 116 nM and the concentration giving a half-maximal response (EC50) is 75.2 nM.

The values are drawn from US11555036B2, “FGFR4 inhibitor, preparation method therefor and pharmaceutical use thereof” (Abbisko Therapeutics Co., Ltd., priority 2016, dated 2023).
